Laboratory results as given in patent US10806798B2, “Compound with effects of thrombolysis, free radical scavenging and thrombus-targeting” (Shanghai Lumosa Therapeutics Co., Ltd., priority 2012, dated 2020).
Side chains are listed from the residue outwards. Ends that are not written are not given here.

Columns and labels:
[1] = system: thrombus; assay: In vivo anti-thrombus experiment (arteriovenous cannula with thread); parameters: species or system SD rats; conditions: 0.1 μmol/kg by gavage; n = 11
Description: SD rats (male, 220 to 230 g) were randomly divided into groups with 11 rats in each group. The rats were fed at a resting state for 1 day and fasted overnight. […] After 30 min, the rats were anesthetized with a 20% urethane solution, and the right carotid artery and the left carotid vein were dissected. A cannula was filled with sodium heparin in normal saline, and one end thereof was inserted into the left vein, while the other end was injected with a certain amount of sodium heparin for anticoagulation with an injector and then inserted into the right artery. Blood flew from the right artery to the left vein through the polyethylene tubing, and the thread attached with thrombus was taken out after 15 min and the weight thereof was recorded. The wet thrombus weight was determined by subtracting the thread weight from the total weight.

[2] = system: thrombus from rat arterial blood; assay: In vitro thrombolysis; parameters: species or system SD rats; conditions: 100 nM, 2 h at 37° C., n = 6
Description: SD rats (male, 350 to 400 g) were anaesthetized by intraperitoneal injection of a urethane solution at a dosage of 1200 mg/kg. The anaesthetized rats were fixed in a supine position, and the right common carotid artery was dissected, clamped at the proximal end with an arterial clip, and penetrated with a suture at the proximal and distal ends, respectively. The suture at the distal end is clipped tightly by a hemostatic clamp at the fur. Cannulation was performed at the distal end, the artery clamp was removed, and the total arterial blood was discharged into a 50 ml container previously treated with silicone oil. […] rat arterial blood was injected into a vertically fixed glass tube (20 mm in length, with an inner diameter of 4 mm and an outer diameter of 5 mm, sealed with a rubber stopper at the bottom), into which was immediately inserted a thrombus immobilization screw made of stainless steel. […] 40 min after the blood was coagulated, the rubber stopper at the bottom of the glass tube was removed, the stem of the thrombus immobilization screw was nipped by forceps, and the thrombus-wrapped thrombus immobilization screw was carefully taken out from the glass tube. The screw was then suspended and dipped in triple-distilled water to remove excessive blood, and accurately weighed after 1 h. The thrombus was suspended in 8 mL of normal saline, or a solution of compounds Ia-Il in normal saline (at a concentration of 100 nM), or a solution of ARPAK (SEQ. ID NO. 4), GRPAK (SEQ. ID NO. 5), RPAK (SEQ. ID NO. 3) or PAK in normal saline (at a concentration of 100 nM), or a solution of urokinase in normal saline (100 IU/mL), then shaked at 37° C. in a thermostatic shaker (63 r/min), and removed after 2 h and accurately weighed to determine the weight of the thrombus.

[3] = system: rats with stroke; assay: Cerebral infarction volume after immediate treatment of stroke (TTC staining); assay type: in vivo, SD rats; conditions: n = 10
Description: After the rats were awake for 24 h and assessed for their degree of damage in neural function in Experimental example 6, they were anesthesized with urethane followed by immediate decapitation and removal of the brain. Brain tissues were kept in a −20° C. refrigerator for 2 h, and coronal sections of about 2 mm were successively sliced from the prefrontal end for a total of 6 sections, and then placed into a 2% TTC solution to incubate in darkness at 37° C. for 30 min. The color change in brain sections was observed: normal brain tissues were stained red by TTC, while ischemic brain tissues, i.e., brain tissues with infracts, appeared in a white color. Photographs were taken by using a digital camera and processed with SPSS statistics software, and the volume of infarction in brain tissues and the volume of normal brain tissues in the coronal sections were calculated.

[4] = system: thrombus; assay: In vivo thrombolysis, rat arteriovenous bypass thrombolysis model; parameters: species or system SD rats; conditions: 0.1 μmol/kg, after 1 h, n = 10
Description: SD rats (male, 220 to 230 g) were anaesthetized by intraperitoneal injection of a urethane solution at a dosage of 1200 mg/kg. The anaesthetized rats were fixed in a supine position, and the right common carotid artery was dissected, clamped at the proximal end with an arterial clip, and penetrated with a suture at the proximal and distal ends, respectively. The suture at the distal end is clipped tightly by a hemostatic clamp at the fur. Cannulation was performed at the distal end, the arterial clamp was removed, and about 1 ml arterial blood was discharged into a 1 ml eppendorf. 0.1 ml rat arterial blood was injected into a vertically fixed glass tube (15 mm in length, with an inner diameter of 2.5 mm and an outer diameter of 5.0 mm, sealed with a rubber stopper at the bottom), into which was immediately inserted a thrombus immobilization screw made of stainless steel. […] 15 min after the blood was coagulated, the rubber stopper at the bottom of the glass tube was removed, the stem of the thrombus immobilization screw was nipped by forceps, and the thrombus-wrapped thrombus immobilization screw was carefully taken out of the glass tube and then accurately weighed.
A bypass cannula was composed of 3 segments. The middle segment was a polyethylene tubing having a length of 60.0 mm and an inner diameter of 3.5 mm. The segments on both ends were similar polyethylene tubes having a length of 100.0 mm, an inner diameter of 1.0 mm and an outer diameter of 2.0 mm, one end of which was pulled to form a tip, with an outer diameter of 1.0 mm, that could be inserted into the rat carotid artery or vein, and the other end of which was sheathed by a polyethylene tube having a length of 7.0 mm and an outer diameter of 3.5 mm (thickened in order to be inserted into the polyethylene tubing of the middle segment). The inner wall of the 3-segment cannula was entirely silylated (with 1% silicone oil in ethyl ether). The thrombus-wrapped thrombus immobilization screw was placed into the polyethylene tubing of the middle segment, and both ends of the tubing sheathed the thickened ends of the two polyethylene tubes. The cannula was filled with a heparin solution in normal saline (50 IU/kg) through the tip end by using an injector and was ready for use. The trachea of the anaesthetized rat was then dissected and tracheal cannulation was performed. The left external carotid vein of the rat was dissected, and penetrated with a suture at the proximal and distal ends, respectively. An uneven open incision was careful made on the exposed left external carotid vein, and the tip of the bypass cannula prepared as described above was inserted into the proximal end of the open incision in the left external carotid vein, away from the stem of the thrombus immobilization screw in the middle segment of the bypass cannula (which accommodated the accurately weighed thrombus immobilization screw). A precise amount of heparin in saline (50 IU/kg) was injected through the tip at the other end by using an injector. At this moment, without removing the injector from the ethylene tube, the tubing between the injector and the polyethylene tube was clamped with forceps. The blood flow was stopped by clamping the proximal end of the right common carotid artery with an arterial clip, and an uneven open incision was cut carefully across the common carotid artery near the clip. The injector was pulled out of the tip of the polyethylene tube, and the tip of the polyethylene tube was then inserted into the proximal end of the artery open incision. Both ends of the bypass cannula were fixed to the artery or vein with #4 sutures. […]

[5] = system: euglobulin clot; assay: Euglobulin clot lysis; assay type: biochemical, Pig; conditions: 10 μL of 1 mM solution; after 4 h; n = 3
Description: Pig blood was taken and mixed with 3.8% sodium citrate in a volume ratio of 9:1, immediately centrifuged at 3000 r/min for 10 min, and platelet-poor plasma was separated. 2 mL platelet-poor pig plasma and 36 mL ultrapure water were added into a 50 mL centrifuge tube. In each tube, 0.4 mL acetic acid (1%) was added and thoroughly mixed, and the tube was placed in a 4° C. refrigerator for 10 min and then centrifuged at 3000 r/min for 10 min. The centrifuge tubes were inverted, and then the inner wall of the tubes was dried using a filter paper after the liquid was drained. The euglobuin pellets resulting from centrifugation was freeze-dried for about 40 min and scratched out. About 35 mg euglobuin was taken and dissolved in 7 ml borax buffer (pH 9.28). The euglobuin were mostly dissolved after 1 h, into which 0.7 mL CaCl2 solution (25 mM) was added, and immediately plated on a 10×10 cm glass plate with a thickness of about 1 mm. After clot formation, 10 μL normal saline, or 10 μL of a solution of one of compounds Ia to Il in normal saline (1 mM) or 10 μL of a urokinase solution in normal saline (0.8 mg/mL) was pipetted and spotted onto the clot plate, with an interval between every two drops more than 1.5 cm, and each sample was spotted 3 times.

## 1,3-dioxo-2-{4′-oxyacetyl-[N^ω-(Pro-Ala-Lys)-Lys-Arg-Gly-Asp-Val]phenyl}-4,4,5,5-tetramethylimidazoline (K([Lys-Ala-Pro])RGDV; not fully specified (N-terminus); also: 4′-oxyacetylphenyl-1,3-dioxo-4,4,5,5-tetramethylimidazoline (nitronyl nitroxide) conjugate, attachment amine not clear) [Ik]
[1]
  Wet weight of thrombus (Mean ± SD mg): 22.25 ± 2.25 mg
[2]
  Weight reduction in thrombus (Mean ± SD mg): 25.00 ± 1.54 mg
[3]
  Percentage of infarction volume (Mean ± SD %): 7.86 ± 1.02%
[4]
  Weight reduction in thrombus (Mean ± SD mg): 15.47 ± 2.61 mg
[5]
  Diameter (Mean ± SD mm) of euglobulin clot lysis: 4.5 mm
